Assay results taken from patent US9675598B2, “Compositions of tolperisone” (SANOCHEMIA PHARMAZEUTIKA AG, priority 2007, dated 2017).

Tests used:
[1] = 4-MMPPO content after recrystallization using acidified solvent system (Example 5); assay type: physicochemical; details: 1% (v/v) concentrated aqueous HCl added to the recrystallization mixture
Experimental: Crude tolperisone was dissolved in an 85:15 (v/v) mixture of 2-butanone (MEK) and isopropanol, accompanied by addition of 1% HCl under reflux for 12 hours. The temperature was decreased to 80° C. and the solution filtered while hot. The solution was cooled to 5° C. and stirred for 7 h at 5° C.
The crystalline precipitate was separated by filtering, washed with isopropanol, and subsequently dried in vacuo at 45 to 85° C., with lower drying temperatures being preferred.
When 1% (v/v) concentrated aqueous HCl was added to the recrystallization mixture, 4-MMPPO levels dropped below 6.6 ppm in the final recrystallized tolperisone product.

[2] = 4-MMPPO content after standard single recrystallization of tolperisone (Example 2); assay type: physicochemical
Experimental: All samples used in the analytical sequence were prepared for analysis as follows. Sample were homogenized if necessary (e.g., tablets) and weighed. For each tolperisone sample, approximately 20 mg of sample was added into a 20 mL flask. 20 mL of 50 mM HCl in MeOH was added to the flask, which was then placed in an ultrasonic bath for about 5 minutes. The contents of the flask were mixed on a vortexer for about 20 seconds. In instances in which the tolperisone sample had initially been in tablet form, the solution was then centrifuged at 4000 rpm for 2 minutes. 200 μL of the sample was then transferred into a small conical centrifuge vial. 20 μL of an internal standard solution containing deuterated 4-MMPPO, 200 μL of buffer at pH 1, and 0.4 mL of diisopropyl ether (DIPE) were added to the vial. The sample was then extracted by vortexing with a DVX-2500 multi-tube vortexer (2100 rpm) for about 2 minutes (cycle: 5 seconds run, 1 second pause time) and centrifugation (phase separation) at 4000 rpm for 2 minutes. 150 μL of 50 mM HCl in MeOH/DMSO (½) was added into empty designated conical autosampler vials. After centrifugation, 100 μL of supernatant was transferred into these conical autosampler vials. The vials were crimped and vortexed with a DVX-2500 multi-tube vortexer (2100 rpm) for about 1 minute. […]

Cc1ccc(C(=O)C(C)CN2CCCCC2)cc1 (stereo not drawn) [tolperisone, 2-methyl-1-(4-methylphenyl)-3-(piperidinyl)-1-propanone]
4-MMPPO levels in the final recrystallized tolperisone product [1]: below 6.6 ppm | 4-MMPPO content of recrystallized product ([2]; ppm as printed): 1400 ppm | 4-MMPPO content, subsequent production batches ([2]; subsequent production batches): < 0.05%
